From patent US5744600A, “Phosphonomethoxy carbocyclic nucleosides and nucleotides” (Institute of Organic Chemistry and Biochemistry of the …, priority 1994, dated 1998)
Values after ≈ are worked out from the molar mass of the structure shown. Where two headings read alike, the source gives them in different places.

Legend:
[1] = test system: herpes simplex virus Type 2 (HSV-2) [G strain]; assay: HSV-2 plaque reduction assay in vero cells; format: cell-based; settings: Human alphaherpesvirus 2, Table II, racemic series, 48 hour incubation, read-out: HSV-2 in vitro antiviral activity (IC50)
Protocol: (§1) The antiviral activity of compounds of the invention, against both herpes viruses and human immunodeficiency virus (HIV), are presented in Table II. In Table II, the numbers in parenthesis in the columns reporting HIV activity represent the TD50, that is, the dosage at which toxic effects are observed in 50% of the population of cells tested.
(§2) The compounds were evaluated for antiviral activity in vitro by a standard plaque reduction assay. Experiments were conducted with vero cells (African Green Monkey Kidney cells) infected with herpes simplex virus Type 1 (HSV-1) [BW^s strain, C. D. Sibrack, et al., Infect. Disc., 1982, 146, 673] and herpes simplex virus Type 2 (HSV-2) [G strain, obtained from American Tissue Culture Collection, Rockville, Md.] and with MRC-5 cells (human embryonic lung (diploid) cells) infected with human cytomegalovirus (HCMV) [AD169 strain, obtained from American Tissue Culture Collection, Rockville, Md].
(§3) Briefly, confluent cell monolayers in 24-well plates were infected with 3-50 plaque-forming units of virus in 100 μl of phosphate-buffered saline. After a 1 hour adsorption period, residual inoculum was replaced with 1 mL of the appropriate dilution of the test compound which had been freshly prepared in Eagle's minimal essential medium ("EMEM") containing 10% fetal bovine serum. After a 48 hour incubation period at 37° C. in a 5% CO2 atmosphere, cell monolayers were fixed and stained with Carbol fuchsin and plaques were counted. The antiviral potency of the compound was determined by IC50, the inhibitory concentration necessary to reduce the number of plaques by 50% of those in the virus control cultures.

[2] = test system: herpes simplex virus Type 1 (HSV-1) [BW^s strain]; assay: HSV-1 plaque reduction assay in vero cells; format: cell-based; settings: Human alphaherpesvirus 1, Table II, racemic series, 48 hour incubation, read-out: HSV-1 in vitro antiviral activity (IC50)
Protocol: as §1, §2, §3

[3] = test system: Murine leukemia virus (MuLV); assay: MuLV UV-XC plaque assay in SC-1 cells; format: cell-based; settings: SC1, Table II, racemic series, read-out: MuLV in vitro antiviral activity (IC50)
Protocol: The compounds were evaluated for antiviral activity against Murine leukemia virus (MuLV) strains using the UV-XC plaque assay (Rowe, et. al., Virology, 42:1136, 1970).
The MuLV strains were grown in fetal mouse cells, (SC-1) and used for antiviral tests using the UV-XC plaque assay. Briefly, SC-1 cells are grown as monolayers in 4-well tissue culture plates and inoculated with approximately 50-100 plaque forming units of MuLV in 0.5 ml of 5% EMEM containing 20 μg/ml DEAE/Dextran. After 1 hr. adsorption, the inoculum is removed and 5 ml of 5% EMEM containing three-fold dilutions of the appropriate drug are added. Five days later, the cultures are UV-irradiated with an ultraviolet lamp and rat XC sarcoma cells are added to the cultures. Three to four days after UV-irradiation, the cell cultures are stained with Giemsa stain and the plaques are counted. Antiviral activity is expressed in terms of the reduction in the mean number of UV-XC plaques counted in the drug treated, virus-infected cultures compared with mean number of plaques counted in untreated, virus-infected control cultures. IC50 values are calculated by determining the concentration of compound necessary to reduce the number of plaques by 50% compared to those in the virus control cultures.

[4] = test system: human cytomegalovirus (HCMV) [AD169 strain]; assay: HCMV plaque reduction assay in MRC-5 cells; format: cell-based; settings: Human betaherpesvirus 5, AD169, MRC5, Table II, racemic series, 48 hour incubation, read-out: HCMV in vitro antiviral activity (IC50)
Protocol: as §2, §3

[5] = test system: VZV (varicella zoster virus, strain ELLEN); assay: VZV plaque inhibition assay in WI-38 cells; format: cell-based; settings: 5-7 days
Protocol: (§4) Additional assays were performed in cell culture systems to determine the concentrations of compounds that are effective in preventing several kinds of viral infections. In Tables III and IV, the anti-HIV results using CEM cells were obtained using the same protocol described earlier. Figures in parenthesis represent the observed TD50 in the HIV screens indicated. Abbreviations:
(§5) HSV-1 (herpes simplex virus type 1, strain Schooler), HSV-2 (herpes simplex virus type 2, strain 186), VZV (varicella zoster virus, strain ELLEN), HCMV (human cytomegalovirus, strain AD 169 HIV (human immunodeficiency virus, strain HTLV-IIIB).
(§6) Virus was adsorbed to WI-38 cell culture monolayers in 6 well culture plates (Costar, Cambridge, Mass.) for 1 hour prior to addition of maintenance medium containing duplicate dilutions of the test compound. Inhibition of plaque development was evaluated on fixed and stained monolayers after 4 days incubation at 37° C. for HSV-1 and HSV-2, and after 5-7 days incubation at 37° C. for HCMV and VZV. ID50 values were determined from the drug concentration which conferred at least a 50% plaque reduction compared to virus controls.

[6] = test system: HSV-1 (herpes simplex virus type 1, strain Schooler); assay: HSV-1 plaque inhibition assay in WI-38 cells; format: cell-based; settings: Human alphaherpesvirus 1, 96 h, 4 days
Protocol: as §4, §5, §6

[7] = test system: HCMV (human cytomegalovirus, strain AD 169); assay: HCMV plaque inhibition assay in WI-38 cells; format: cell-based; settings: 5-7 days
Protocol: as §4, §5, §6

[8] = test system: HSV-2 (herpes simplex virus type 2, strain 186); assay: HSV-2 plaque inhibition assay in WI-38 cells; format: cell-based; settings: Human alphaherpesvirus 2, 96 h, 4 days
Protocol: as §4, §5, §6

murine leukemia L1210 = settings: in vitro; Herdewijn, et al., J. Med. Chem. (1985); cited from earlier work
[9] = Herdewijn, et al., J. Med. Chem. (1985); cited from earlier work
[10] = test system: phytopathogenic bacteria and fungi; settings: Kusaka, et al., J. Antibiotics, (1968); cited from earlier work
[11] = Herdewijn, et al., J. Med. Chem. (1985); cited from earlier work; remark: listed apart in the source
[12] = Human alphaherpesvirus 3, Table III, racemic series, read-out: VZV in vitro antiviral activity (ID50)
[13] = Table III, racemic series, read-out: HSV-1 in vitro antiviral activity (ID50)
[14] = Human betaherpesvirus 5, Table III, racemic series, read-out: HCMV in vitro antiviral activity (ID50)
[15] = Table III, racemic series, read-out: HSV-2 in vitro antiviral activity (ID50)

SMILES: Cc1cn(C2C=CC(OCP(=O)(O)O)C2)c(=O)[nH]c1=O (centres unmarked)
- IC50 [1]: > 134 µg/mL
- IC50 [2]: > 140 µg/mL

SMILES: Nc1ncnc2c1ncn2C1C=CC(OCP(=O)(O)O)C1 (centres unmarked) [drawing 24]
- IC50 [1]: > 82 µg/mL
- IC50 [2]: > 116 µg/mL
- IC50 [3]: 0.84 µg/mL (≈ 2.7 µM)
- IC50 [4]: > 100 µg/mL

SMILES: Nc1ncnc2c1ncn2C1CC(OCP(=O)(O)O)C(O)C1F (centres unmarked) [drawing 27]
- IC50 [1]: > 100 µg/mL
- IC50 [4]: 85 µg/mL (≈ 245 µM)

SMILES: Nc1nc2c(ncn2C2CC(OCP(=O)(O)O)CC2F)c(=O)[nH]1 (centres unmarked)
- IC50 [5, 12]: 10 to 33 µg/mL (≈ 28.8 to 95 µM)
- IC50 [6, 13]: 10 to 25 µg/mL (≈ 28.8 to 72 µM)
- IC50 [7, 14]: 10 to 25 µg/mL (≈ 28.8 to 72 µM)
- IC50 [8, 15]: 10 to 25 µg/mL (≈ 28.8 to 72 µM)

SMILES: Nc1nc2c(ncn2C2C=CC(OCP(=O)(O)O)C2)c(=O)[nH]1 (centres unmarked) [drawing 15]
- IC50 [1]: > 50 µg/mL
- IC50 [2]: 13.5 µg/mL (≈ 41.3 µM)
- IC50 [3]: 5.1 µg/mL (≈ 15.6 µM)
- IC50 [4]: > 100 µg/mL

SMILES: Nc1ncnc2c1ncn2[C@@H]1C[C@H](CO)[C@@H](O)[C@H]1O [aristeromycin]
- activity against murine leukemia L1210 (murine leukemia L1210): active
- antiviral activity [9]: has antiviral activity
- growth inhibitory activity against phytopathogenic bacteria and fungi [10]: growth inhibitory activity
- cytotoxicity [11]: cytotoxic

SMILES: Nc1ncnc2c1ncn2C1C=CC(OCP(=O)(O)O)C1 (centres unmarked) [drawing 33]
- IC50 [5, 12]: > 100 µg/mL
- IC50 [6, 13]: > 100 µg/mL
- IC50 [7, 14]: > 100 µg/mL
- IC50 [8, 15]: > 100 µg/mL

SMILES: Nc1nc2c(ncn2C2C=CC(OCP(=O)(O)O)C2)c(=O)[nH]1 (centres unmarked) [drawing 30]
- IC50 [5, 12]: 12 to 121 µg/mL (≈ 36.7 to 370 µM)
- IC50 [6, 13]: > 72 µg/mL
- IC50 [7, 14]: > 100 µg/mL
- IC50 [8, 15]: > 72 µg/mL

SMILES: Nc1nc2c(ncn2C2CC(OCP(=O)(O)O)C(O)C2F)c(=O)[nH]1 (centres unmarked)
- IC50 [1]: 22 µg/mL (≈ 60.6 µM)
- IC50 [4]: 0.36 µg/mL (≈ 0.991 µM)

SMILES: Nc1ncnc2c1ncn2C1CC(OCP(=O)(O)O)C(O)C1O (centres unmarked)
- IC50 [1]: > 100 µg/mL
- IC50 [3]: > 100 µg/mL
- IC50 [4]: > 100 µg/mL

SMILES: Nc1ncnc2c1ncn2C1CC(OCP(=O)(O)O)C(O)C1F (centres unmarked) [drawing 67]
- IC50 ([5]; Human alphaherpesvirus 3, Table IV, enantiomeric series (1R, 4S), read-out: VZV in vitro antiviral data (ID50)): 5 to 10 µg/mL (≈ 14.4 to 28.8 µM)
- IC50 ([6]; Table IV, enantiomeric series (1R, 4S), read-out: HSV-1 in vitro antiviral data (ID50)): 10 to 25 µg/mL (≈ 28.8 to 72 µM)
- IC50 ([7]; Human betaherpesvirus 5, Table IV, enantiomeric series (1R, 4S), read-out: HCMV in vitro antiviral data (ID50)): > 100 µg/mL
- IC50 ([8]; Table IV, enantiomeric series (1R, 4S), read-out: HSV-2 in vitro antiviral data (ID50)): 10 to 25 µg/mL (≈ 28.8 to 72 µM)

SMILES: Nc1nc2c(ncn2C2CC(OCP(=O)(O)O)C(O)C2O)c(=O)[nH]1 (centres unmarked)
- IC50 [1]: > 100 µg/mL
- IC50 [2]: > 100 µg/mL
- IC50 [3]: > 100 µg/mL
- IC50 [4]: 4.5 µg/mL (≈ 12.5 µM)
